# Test results: patent publication US20050228016A1, “TETRAHYDROQUINOLINES FOR MODULATING THE EXPRESSION OF EXOGENOUS GENES VIA AN ECDYSONE RECEPTOR COMPLEX” (priority 2002, published 2005)
# Key:
# Assay type in all cases: cell-based
# [1] = target: T1, Bombyx mori EcR (VP16-BmEcR, CVBE) (Bombyx mori, UniProt P49881); assay: Z3 assay (HEK-293 clone Z3 with CVBE and 6x EcRE LacZ, β-galactosidase reporter); settings: 48 h, average of two wells
# T1 construct: expressed in transfected cells
# T1 sequence (P49881 86-606): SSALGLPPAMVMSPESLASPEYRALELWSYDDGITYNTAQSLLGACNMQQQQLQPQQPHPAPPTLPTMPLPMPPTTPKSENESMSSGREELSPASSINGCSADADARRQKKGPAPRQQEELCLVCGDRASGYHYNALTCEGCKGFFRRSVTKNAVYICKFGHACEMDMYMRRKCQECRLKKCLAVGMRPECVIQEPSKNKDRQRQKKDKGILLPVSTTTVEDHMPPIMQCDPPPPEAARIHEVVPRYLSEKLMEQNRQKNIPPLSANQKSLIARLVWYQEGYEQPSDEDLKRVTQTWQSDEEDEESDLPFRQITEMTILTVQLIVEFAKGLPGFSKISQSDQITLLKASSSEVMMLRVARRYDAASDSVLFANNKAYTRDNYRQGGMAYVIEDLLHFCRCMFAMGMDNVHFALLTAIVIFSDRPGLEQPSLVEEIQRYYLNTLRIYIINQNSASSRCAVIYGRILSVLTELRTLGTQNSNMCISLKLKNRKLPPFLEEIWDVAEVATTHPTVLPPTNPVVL
# [2] = target: T2, Gal4DBD/AaEcR (DEF) (Aedes aegypti, UniProt P49880); assay: cell-based; settings: 33 μM; 3T3 cells; 48 h; average of two wells
# T2 construct: The wildtype D, E, and F domains from mosquito Aedes aegypti EcR; expressed in transfected cells; host or cells: 3T3 cells
# How it was run: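 Single-dose ligand testing at 33 μM, applied in serum medium after 4 h transfection. Host was 3T3 cells carrying Gal4DBD/AaEcR (DEF) plus a 5× GAL4 RE-driven firefly luciferase reporter (pFRLuc).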
# [3] = target: T3, GAL4AaEcR-DEF/VP16HsRXRβ-EF (Aedes aegypti, UniProt P49880); assay: Transactivation reporter assay, AaEcR based switch (1.4) in NIH3T3 cells; settings: mammalian cells; FIGS. 2-5
# T3 construct: expressed in transfected cells; host or cells: mouse NIH3T3 cells
# T3 sequence (P49880 405-776 limits assumed): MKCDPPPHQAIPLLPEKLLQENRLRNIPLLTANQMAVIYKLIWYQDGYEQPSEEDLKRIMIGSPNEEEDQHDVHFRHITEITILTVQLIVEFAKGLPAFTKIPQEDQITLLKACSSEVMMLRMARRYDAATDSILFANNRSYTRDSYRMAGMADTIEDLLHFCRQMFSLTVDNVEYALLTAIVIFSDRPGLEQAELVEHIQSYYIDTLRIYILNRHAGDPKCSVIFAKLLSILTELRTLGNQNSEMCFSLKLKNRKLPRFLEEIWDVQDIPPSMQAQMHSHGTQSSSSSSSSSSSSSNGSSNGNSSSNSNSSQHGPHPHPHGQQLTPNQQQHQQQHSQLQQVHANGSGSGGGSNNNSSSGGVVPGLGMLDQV
# T3 sequence (P28702 299-533 partner limits assumed): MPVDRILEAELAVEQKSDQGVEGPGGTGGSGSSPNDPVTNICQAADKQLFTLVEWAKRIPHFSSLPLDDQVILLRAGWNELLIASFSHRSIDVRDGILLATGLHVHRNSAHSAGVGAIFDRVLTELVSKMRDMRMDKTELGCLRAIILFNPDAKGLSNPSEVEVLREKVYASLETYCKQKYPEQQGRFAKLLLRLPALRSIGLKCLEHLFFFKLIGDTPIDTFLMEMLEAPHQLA
# Method: Total relative light units (RLU) are shown.
# Twenty μl of lysate were assayed.
smiles,measurement,setting,value
C[C@H]1C[C@H](Nc2ccc(F)cc2)c2cc(F)ccc2N1C(=O)c1ccc(F)c(C(F)(F)F)c1 (relative stereo) [Compound I-5],"Fold Induction Average, Z3V1 Assay 33 μM",[1],96 fold
same,"Fold Induction Average, AA_3T3V1 Assay 33 μM",[2],366 fold
same,Activity on AaEcR based switches,[3],very active
